Assay results: US12071425B2 (Genentech, Inc., priority 2018, dated 2024)
Where a name gives a salt, the structure may show the parent alone.

Biological target: kinase domain of IRE1 alpha (His-tagged kinase dead construct KR, AA G547-L977, D688N) (Homo sapiens (Human), UniProt O75460, D688N)
Experiment: IRE1α TR-FRET competition binding assay
Details: competition with Kinase Tracer 236, 0.1 μM; one hour at room temperature
Experimental: To determine the affinity of compound binding to the kinase domain of IRE1 alpha, a Time Resolved Fluorescence Resonance Energy Transfer (TR-FRET) competition assay was used. A His-tagged IRE1 alpha kinase dead construct containing the kinase and RNase domains (KR, AA G547-L977, D688N) was expressed in Sf9 insect cells. The purified protein (final concentration 0.006 μM micromolar) was pre-incubated with anti-His Europium labeled antibody (Life Technologies PV5596, final concentration 0.002 μM micromolar) for one hour at 4° C. in 1X TR-FRET Assay Buffer (50 mM HEPES, pH 7.5.10 mM MgCl2, 0.083 mM Brij 35, 1 mM DTT, and 0.1% bovine gamma globulin) prior to addition to test compounds. A fluorescent labeled probe based on an ATP competitive inhibitor (Kinase Tracer 236, Life Technologies PV5592) is added to a final concentration of 0.1 μM (micromolar). Reactions were carried out for one hour at room temperature in a final volume of 20 μL (microliter) in 384 well white ProxiPlates (Perkin Elmer 6008289). Binding of the tracer to the IRE1 protein alpha was detected in an Envision instrument (PerkinElmer) equipped with a TRF laser option and a LANCE/Delfia Dual/Bias D400/D630 mirror (Ex 347 nm, 1st Em 665 nm, 2nd Em 615 nm).
Exemplary compounds in Table A1 were tested in the IRE1α binding assays.

kinase domain of IRE1 alpha (His-tagged kinase dead construct KR, AA G547-L977, D688N), sequence (O75460 547-977 D688N): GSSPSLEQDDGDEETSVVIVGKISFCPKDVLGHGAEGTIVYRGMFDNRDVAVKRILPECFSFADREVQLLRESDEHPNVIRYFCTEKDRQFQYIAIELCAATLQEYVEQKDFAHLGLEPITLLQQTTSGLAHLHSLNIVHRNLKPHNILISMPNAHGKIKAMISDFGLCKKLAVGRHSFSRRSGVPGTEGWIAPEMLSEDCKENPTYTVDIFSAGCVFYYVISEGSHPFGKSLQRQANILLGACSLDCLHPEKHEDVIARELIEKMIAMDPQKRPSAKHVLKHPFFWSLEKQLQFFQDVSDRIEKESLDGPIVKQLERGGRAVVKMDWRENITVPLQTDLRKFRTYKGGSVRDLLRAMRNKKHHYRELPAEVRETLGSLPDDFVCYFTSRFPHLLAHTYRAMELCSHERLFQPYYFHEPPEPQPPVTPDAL

Compound: CC(F)C1CNCC(Nc2nccc(-c3cccnc3Oc3cc(F)c(NS(=O)(=O)Cc4ccccc4)c(F)c3F)n2)C1 (single isomer, unassigned) [Compound 342, 1-Phenyl-N-(2,3,6-trifluoro-4-((3-(2-((5-(1-fluoroethyl)piperidin-3-yl)amino)pyrimidin-4-yl)pyridin-2-yl)oxy)phenyl)methanesulfonamide hydrochloride]
- IC50: 0.16 nM

Compound: CC(F)C1CNCC(Nc2nccc(-c3cccnc3Oc3cc(F)c(NS(=O)(=O)Cc4ccccc4)c(F)c3F)n2)C1 (single isomer, unassigned) [Compound 343, 1-Phenyl-N-(2,3,6-trifluoro-4-((3-(2-((5-(1-fluoroethyl)piperidin-3-yl)amino)pyrimidin-4-yl)pyridin-2-yl)oxy)phenyl)methanesulfonamide hydrochloride]
- IC50: 0.78 nM

Compound: CC(F)C1CNCC(Nc2nccc(-c3cccnc3Oc3cc(F)c(NS(=O)(=O)Cc4ccccc4)c(F)c3F)n2)C1 (single isomer, unassigned) [Compound 344, 1-Phenyl-N-(2,3,6-trifluoro-4-((3-(2-((5-(1-fluoroethyl)piperidin-3-yl)amino)pyrimidin-4-yl)pyridin-2-yl)oxy)phenyl)methanesulfonamide hydrochloride]
- IC50: 19 nM

Compound: CC(F)C1CNCC(Nc2nccc(-c3cccnc3Oc3cc(F)c(NS(=O)(=O)Cc4ccccc4)c(F)c3F)n2)C1 (single isomer, unassigned) [Compound 345, 1-Phenyl-N-(2,3,6-trifluoro-4-((3-(2-((5-(1-fluoroethyl)piperidin-3-yl)amino)pyrimidin-4-yl)pyridin-2-yl)oxy)phenyl)methanesulfonamide hydrochloride]
- IC50: 0.17 nM

Compound: CC(F)C1CNCC(Nc2nccc(-c3cccnc3Oc3cc(F)c(NS(=O)(=O)Cc4ccccc4)c(F)c3F)n2)C1 (single isomer, unassigned) [Compound 346, 1-Phenyl-N-(2,3,6-trifluoro-4-((3-(2-((5-(1-fluoroethyl)piperidin-3-yl)amino)pyrimidin-4-yl)pyridin-2-yl)oxy)phenyl)methanesulfonamide]
- IC50: 72 nM

Compound: CC(F)C1CNCC(Nc2nccc(-c3cccnc3Oc3cc(F)c(NS(=O)(=O)Cc4ccccc4)c(F)c3F)n2)C1 (single isomer, unassigned) [Compound 347, 1-Phenyl-N-(2,3,6-trifluoro-4-((3-(2-((5-(1-fluoroethyl)piperidin-3-yl)amino)pyrimidin-4-yl)pyridin-2-yl)oxy)phenyl)methanesulfonamide]
- IC50: 49 nM

Compound: CC(F)C1CNCC(Nc2nccc(-c3cccnc3Oc3cc(F)c(NS(=O)(=O)Cc4ccccc4)c(F)c3F)n2)C1 (single isomer, unassigned) [Compound 348, 1-Phenyl-N-(2,3,6-trifluoro-4-((3-(2-((5-(1-fluoroethyl)piperidin-3-yl)amino)pyrimidin-4-yl)pyridin-2-yl)oxy)phenyl)methanesulfonamide]
- IC50: 0.2 nM

Compound: C[C@@H](c1ccccc1)S(=O)(=O)Nc1c(F)cc(Oc2ncccc2-c2ccnc(N[C@@H]3CNC[C@@H](F)C3)n2)c(F)c1F (single isomer, unassigned) [Compound 387, (*S)-1-Phenyl-N-(2,3,6-trifluoro-4-((3-(2-(((3S,5S)-5-fluoropiperidin-3-yl)amino)pyrimidin-4-yl)pyridin-2-yl)oxy)phenyl)ethane-1-sulfonamide]
- IC50: 0.2 nM

Compound: C[C@H](c1ccccc1)S(=O)(=O)Nc1c(F)cc(Oc2ncccc2-c2ccnc(N[C@@H]3CNC[C@@H](F)C3)n2)c(F)c1F (single isomer, unassigned) [Compound 388, (*R)-1-phenyl-N-(2,3,6-trifluoro-4-((3-(2-(((3S,5S)-5-fluoropiperidin-3-yl)amino)pyrimidin-4-yl)pyridin-2-yl)oxy)phenyl)ethane-1-sulfonamide]
- IC50: 0.8 nM

Compound: O=S(=O)(Cc1ccc(F)cc1)Nc1c(F)cc(Oc2ncccc2-c2ccnc(N[C@@H]3CNCC(CF)C3)n2)c(F)c1F (stereo in doubt) [Compound 316, 1-(4-Fluorophenyl)-N-(2,3,6-trifluoro-4-((3-(2-(((3S,5S)-5-(fluoromethyl)piperidin-3-yl)amino)pyrimidin-4-yl)pyridin-2-yl)oxy)phenyl)methanesulfonamide]
- IC50: 0.35 nM

Compound: Cc1cc(NS(=O)(=O)c2ccccc2Cl)ccc1Oc1ncccc1-c1ccnc(N[C@H]2CC[C@H](N)CC2)n1 [Compound 101, N-[4-[[3-[2-[(4-aminocyclohexyl)amino]pyrimidin-4-yl]-2-pyridyl]oxy]-3-methyl-phenyl]-2-chloro-benzenesulfonamide hydrochloride]
- IC50: 13 nM

Compound: Cc1cc(NS(=O)(=O)c2ccccc2Cl)cc(F)c1Oc1ncccc1-c1ccnc(N[C@H]2CC[C@H](N)CC2)n1 [Compound 102, N-[4-[[3-[2-[(4-aminocyclohexyl)amino]pyrimidin-4-yl]-2-pyridyl]oxy]-3-fluoro-5-methyl-phenyl]-2-chloro-benzenesulfonamide hydrochloride]
- IC50: 10 nM

Compound: Cc1ccc(C(=O)NS(=O)(=O)c2ccccc2Cl)cc1Oc1ncccc1-c1ccnc(N[C@H]2CCCNC2)n1 [Compound 103, (S)-N-((2-chlorophenyl)sulfonyl)-4-methyl-3-((3-(2-(piperidin-3-ylamino)pyrimidin-4-yl)pyridin-2-yl)oxy)benzamide]
- IC50: 30 nM

Compound: N[C@H]1CC[C@H](Nc2nccc(-c3cccnc3Oc3c(F)cc(NS(=O)(=O)c4ccccc4Cl)cc3Cl)n2)CC1 [Compound 104, N-[4-[[3-[2-[(4-aminocyclohexyl)amino]pyrimidin-4-yl]-2-pyridyl]oxy]-3-chloro-5-fluoro-phenyl]-2-chloro-benzenesulfonamide hydrochloride]
- IC50: 5.9 nM

Compound: O=S(=O)(CCC(F)(F)F)Nc1ccc(Oc2ncccc2-c2ccnc(N[C@H]3CCCNC3)n2)cc1F [Compound 105, (S)-3,3,3-trifluoro-N-(2-fluoro-4-((3-(2-(piperidin-3-ylamino)pyrimidin-4-yl)pyridin-2-yl)oxy)phenyl)propane-1-sulfonamide hydrochloride]
- IC50: 27 nM

Compound: O=S(=O)(Cc1ccccc1)Nc1ccc(Oc2ncccc2-c2ccnc(N[C@H]3CCCNC3)n2)cc1F [Compound 106, (S)-N-(2-fluoro-4-((3-(2-(piperidin-3-ylamino)pyrimidin-4-yl)pyridin-2-yl)oxy)phenyl)-1-phenylmethanesulfonamide hydrochloride]
- IC50: 5.7 nM

Compound: O=S(=O)(Cc1ccccc1)Nc1cc(F)c(Oc2ncccc2-c2ccnc(N[C@H]3CCCNC3)n2)cc1F [Compound 107, (S)-N-(2,5-difluoro-4-((3-(2-(piperidin-3-ylamino)pyrimidin-4-yl)pyridin-2-yl)oxy)phenyl)-1-phenylmethanesulfonamide hydrochloride]
- IC50: 5.2 nM

Compound: O=S(=O)(Cc1ccccc1)Nc1ccc(Oc2ncccc2-c2ccnc(N[C@H]3CCCNC3)n2)c(F)c1F [Compound 108, (S)-N-(2,3-difluoro-4-((3-(2-(piperidin-3-ylamino)pyrimidin-4-yl)pyridin-2-yl)oxy)phenyl)-1-phenylmethanesulfonamide hydrochloride]
- IC50: 3.4 nM

Compound: O=S(=O)(CCC(F)(F)F)Nc1cc(F)c(Oc2ncccc2-c2ccnc(N[C@H]3CCCNC3)n2)cc1F [Compound 109, (S)-N-(2,5-difluoro-4-((3-(2-(piperidin-3-ylamino)pyrimidin-4-yl)pyridin-2-yl)oxy)phenyl)-3,3,3-trifluoropropane-1-sulfonamide hydrochloride]
- IC50: 26 nM

Compound: C[C@H]1CNC[C@@H](Nc2nccc(-c3cccnc3Oc3ccc(NS(=O)(=O)Cc4ccccc4)c(F)c3F)n2)C1 [Compound 111, N-(2,3-difluoro-4-((3-(2-(((3S,5R)-5-methylpiperidin-3-yl)amino)pyrimidin-4-yl)pyridin-2-yl)oxy)phenyl)-1-phenylmethanesulfonamide hydrochloride]
- IC50: 4.4 nM

Compound: O=S(=O)(Cc1ccccc1)Nc1ccc(Oc2ncccc2-c2ccnc(N[C@@H]3CNC[C@@H](F)C3)n2)c(F)c1F [Compound 112, N-(2,3-difluoro-4-((3-(2-(((3S,5S)-5-fluoropiperidin-3-yl)amino)pyrimidin-4-yl)pyridin-2-yl)oxy)phenyl)-1-phenylmethanesulfonamide]
- IC50: 4.6 nM

Compound: O=S(=O)(Cc1ccccc1)Nc1ccc(Oc2ncccc2-c2ccnc(N[C@H]3CCCNC3)n2)cc1C(F)(F)F [Compound 113, (S)-1-phenyl-N-(4-((3-(2-(piperidin-3-ylamino)pyrimidin-4-yl)pyridin-2-yl)oxy)-2-(trifluoromethyl)phenyl)methanesulfonamide]
- IC50: 11 nM

Compound: Cc1cc(NS(=O)(=O)c2ccccc2Cl)cc(F)c1Oc1ncccc1-c1ccnc(N[C@H]2CCCNC2)n1 [Compound 114, (S)-2-chloro-N-(3-fluoro-5-methyl-4-((3-(2-(piperidin-3-ylamino)pyrimidin-4-yl)pyridin-2-yl)oxy)phenyl)benzenesulfonamide hydrochloride]
- IC50: 7.3 nM

Compound: CCCCS(=O)(=O)Nc1cc(C)c(Oc2ncccc2-c2ccnc(N[C@H]3CCCNC3)n2)c(F)c1 [Compound 115, (S)-N-(3-fluoro-5-methyl-4-((3-(2-(piperidin-3-ylamino)pyrimidin-4-yl)pyridin-2-yl)oxy)phenyl)butane-1-sulfonamide hydrochloride]
- IC50: 30 nM
